Assay in all cases: cell-based
The target in one experiment is hNav1.4 (Homo sapiens, UniProt P35499). It counts as cell-based. The note with it: for IC50: read-out: IC50 (μM) Nav1.4; for Nav1.4/Nav1.7: ratio of IonWorks Quattro IC50 values. On the technique in general: The patch-clamp technique gives a direct electrical read-out from membranes.
In the next experiment the target is hNav1.5 (Homo sapiens, UniProt Q14524). The settings on record: read-out: IC50 (μM) Nav1.5.
A further experiment has as its target hNav1.3 (Homo sapiens, UniProt Q9NY46). The settings on record: read-out: IC50 (μM) Nav1.3.
Another experiment addresses hNav1.7 (Homo sapiens, UniProt Q15858). The note with it: for IC50: read-out: IC50 (μM) Nav1.7; for Nav1.4/Nav1.7: ratio of IonWorks Quattro IC50 values, Nav1.4 over Nav1.7.

Values joined by “and” are separate entries in the source; they are usually repeats but may differ in a detail not shown here. Equal values may be shown once. Read-outs that look alike come from different tables or passages of the source.

Chain of hNav1.4 (P35499 whole entry): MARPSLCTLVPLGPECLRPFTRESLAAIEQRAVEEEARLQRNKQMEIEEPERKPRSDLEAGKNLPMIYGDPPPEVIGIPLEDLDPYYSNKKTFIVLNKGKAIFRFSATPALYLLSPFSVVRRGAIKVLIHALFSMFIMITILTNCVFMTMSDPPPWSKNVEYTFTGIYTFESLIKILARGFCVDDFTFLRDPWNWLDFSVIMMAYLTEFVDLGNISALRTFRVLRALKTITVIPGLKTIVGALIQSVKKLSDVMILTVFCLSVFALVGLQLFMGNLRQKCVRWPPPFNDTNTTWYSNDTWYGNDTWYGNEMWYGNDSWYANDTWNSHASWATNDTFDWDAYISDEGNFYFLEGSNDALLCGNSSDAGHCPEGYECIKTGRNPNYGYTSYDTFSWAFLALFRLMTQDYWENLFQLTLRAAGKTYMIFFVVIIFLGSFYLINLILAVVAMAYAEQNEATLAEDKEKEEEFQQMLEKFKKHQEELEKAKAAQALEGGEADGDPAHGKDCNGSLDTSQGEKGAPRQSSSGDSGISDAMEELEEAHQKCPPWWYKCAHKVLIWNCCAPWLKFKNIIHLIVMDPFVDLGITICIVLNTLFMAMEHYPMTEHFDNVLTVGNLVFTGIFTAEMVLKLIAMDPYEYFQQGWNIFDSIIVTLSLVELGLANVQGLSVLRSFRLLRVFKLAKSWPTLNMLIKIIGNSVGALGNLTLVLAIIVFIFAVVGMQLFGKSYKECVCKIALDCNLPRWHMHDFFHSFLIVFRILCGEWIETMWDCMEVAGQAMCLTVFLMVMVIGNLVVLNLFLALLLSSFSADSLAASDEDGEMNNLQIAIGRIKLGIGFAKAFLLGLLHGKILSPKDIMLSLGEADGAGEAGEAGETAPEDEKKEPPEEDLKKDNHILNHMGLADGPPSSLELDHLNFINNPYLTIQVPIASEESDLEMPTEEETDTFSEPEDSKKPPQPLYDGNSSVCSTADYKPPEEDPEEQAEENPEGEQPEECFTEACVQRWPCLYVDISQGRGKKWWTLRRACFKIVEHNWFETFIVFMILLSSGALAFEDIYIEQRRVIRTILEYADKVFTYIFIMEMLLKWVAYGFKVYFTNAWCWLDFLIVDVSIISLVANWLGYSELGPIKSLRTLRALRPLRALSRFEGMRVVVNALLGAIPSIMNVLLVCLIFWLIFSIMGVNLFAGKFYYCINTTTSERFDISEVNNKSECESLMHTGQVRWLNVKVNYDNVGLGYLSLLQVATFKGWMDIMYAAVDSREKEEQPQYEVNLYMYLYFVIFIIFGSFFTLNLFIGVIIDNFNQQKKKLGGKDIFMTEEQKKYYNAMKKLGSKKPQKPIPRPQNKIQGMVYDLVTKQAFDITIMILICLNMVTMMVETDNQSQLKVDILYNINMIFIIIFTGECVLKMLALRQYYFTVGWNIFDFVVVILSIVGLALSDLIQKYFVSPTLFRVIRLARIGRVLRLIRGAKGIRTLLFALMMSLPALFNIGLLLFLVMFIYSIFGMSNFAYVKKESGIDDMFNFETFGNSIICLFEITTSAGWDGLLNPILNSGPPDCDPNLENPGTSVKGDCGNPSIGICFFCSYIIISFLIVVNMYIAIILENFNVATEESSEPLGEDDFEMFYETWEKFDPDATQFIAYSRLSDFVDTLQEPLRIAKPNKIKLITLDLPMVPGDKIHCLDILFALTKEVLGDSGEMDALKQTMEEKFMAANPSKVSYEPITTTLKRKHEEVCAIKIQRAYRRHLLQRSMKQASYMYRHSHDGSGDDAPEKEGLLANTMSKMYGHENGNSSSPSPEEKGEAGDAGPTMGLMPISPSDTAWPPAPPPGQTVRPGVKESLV
Chain of hNav1.5 (Q14524 whole entry): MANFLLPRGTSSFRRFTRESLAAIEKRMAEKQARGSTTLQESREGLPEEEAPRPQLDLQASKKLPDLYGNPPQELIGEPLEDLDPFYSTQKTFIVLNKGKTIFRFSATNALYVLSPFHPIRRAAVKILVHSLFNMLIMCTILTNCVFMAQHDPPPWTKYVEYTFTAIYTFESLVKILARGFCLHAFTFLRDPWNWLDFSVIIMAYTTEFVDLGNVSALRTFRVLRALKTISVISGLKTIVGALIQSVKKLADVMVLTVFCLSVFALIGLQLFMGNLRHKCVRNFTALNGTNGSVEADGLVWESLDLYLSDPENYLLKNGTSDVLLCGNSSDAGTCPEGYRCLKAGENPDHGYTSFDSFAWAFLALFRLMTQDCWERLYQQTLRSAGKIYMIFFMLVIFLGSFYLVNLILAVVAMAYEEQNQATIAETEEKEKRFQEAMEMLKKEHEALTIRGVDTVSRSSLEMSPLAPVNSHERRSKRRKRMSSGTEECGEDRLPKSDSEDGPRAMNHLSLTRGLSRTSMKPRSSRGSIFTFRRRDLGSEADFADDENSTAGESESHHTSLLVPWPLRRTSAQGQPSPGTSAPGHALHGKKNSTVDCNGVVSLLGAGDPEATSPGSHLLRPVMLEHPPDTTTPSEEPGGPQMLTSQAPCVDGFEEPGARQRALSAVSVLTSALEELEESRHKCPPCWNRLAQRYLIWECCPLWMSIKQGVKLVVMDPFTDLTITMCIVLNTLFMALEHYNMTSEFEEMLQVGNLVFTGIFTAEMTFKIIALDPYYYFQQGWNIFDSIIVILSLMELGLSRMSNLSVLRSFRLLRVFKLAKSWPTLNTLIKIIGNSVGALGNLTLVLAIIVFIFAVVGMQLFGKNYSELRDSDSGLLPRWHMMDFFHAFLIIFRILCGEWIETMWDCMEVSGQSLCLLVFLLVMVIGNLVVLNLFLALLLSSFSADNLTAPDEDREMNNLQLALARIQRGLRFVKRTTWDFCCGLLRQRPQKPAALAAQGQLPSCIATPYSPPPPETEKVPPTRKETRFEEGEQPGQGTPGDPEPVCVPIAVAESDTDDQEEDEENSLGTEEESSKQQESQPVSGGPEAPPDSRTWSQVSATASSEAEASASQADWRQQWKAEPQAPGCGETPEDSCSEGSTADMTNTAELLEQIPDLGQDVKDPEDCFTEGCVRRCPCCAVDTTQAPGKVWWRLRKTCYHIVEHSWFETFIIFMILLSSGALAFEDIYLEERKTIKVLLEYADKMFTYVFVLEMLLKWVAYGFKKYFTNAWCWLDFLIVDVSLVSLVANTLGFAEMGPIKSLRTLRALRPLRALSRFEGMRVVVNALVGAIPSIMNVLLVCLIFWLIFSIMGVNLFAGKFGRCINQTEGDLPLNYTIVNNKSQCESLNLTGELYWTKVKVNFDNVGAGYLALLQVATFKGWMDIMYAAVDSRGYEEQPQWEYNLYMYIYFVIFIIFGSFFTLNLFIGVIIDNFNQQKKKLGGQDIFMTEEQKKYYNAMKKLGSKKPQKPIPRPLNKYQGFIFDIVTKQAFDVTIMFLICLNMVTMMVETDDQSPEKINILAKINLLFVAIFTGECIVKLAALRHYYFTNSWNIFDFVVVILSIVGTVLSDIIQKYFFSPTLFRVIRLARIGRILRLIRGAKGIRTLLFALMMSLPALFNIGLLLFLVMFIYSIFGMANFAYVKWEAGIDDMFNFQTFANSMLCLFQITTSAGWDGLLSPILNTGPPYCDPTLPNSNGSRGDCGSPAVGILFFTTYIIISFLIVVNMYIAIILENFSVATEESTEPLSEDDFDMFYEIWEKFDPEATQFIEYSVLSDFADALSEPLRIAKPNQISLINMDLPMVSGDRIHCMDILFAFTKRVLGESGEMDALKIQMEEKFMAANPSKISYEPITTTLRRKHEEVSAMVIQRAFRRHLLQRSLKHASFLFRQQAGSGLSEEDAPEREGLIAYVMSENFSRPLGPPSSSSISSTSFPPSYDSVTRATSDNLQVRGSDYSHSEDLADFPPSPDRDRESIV

Regarding `CC[C@H](C)[C@H](NC(=O)[C@@H](NC(=O)[C@H](CCCCN)NC(=O)[C@H](CCCNC(=N)N)NC(=O)[C@@H]1CSSC[C@@H]2NC(=O)[C@H](C)NC(=O)[C@H](CCCNC(=N)N)NC(=O)[C@H](CCCCN)NC(=O)[C@H](CO)NC(=O)[C@H](CC(=O)O)NC(=O)[C@@H]3CSSC[C@H](NC(=O)[C@H](CCCNC(=N)N)NC(=O)[C@H](CC(C)C)NC(=O)CNC(=O)[C@H](CCC(=O)O)NC(=O)[C@H](CSSC[C@H](NC(=O)[C@@H](N)Cc4ccc(O)cc4)C(=O)N[C@@H](CCC(N)=O)C(=O)N[C@@H](CCCCN)C(=O)N[C@@H](Cc4c[nH]c5ccccc45)C(=O)N[C@@H](CCSC)C(=O)N[C@@H](Cc4c[nH]c5ccccc45)C(=O)N[C@@H]([C@@H](C)O)C(=O)N3)NC2=O)C(=O)N[C@@H](CCCCN)C(=O)N[C@@H](CC(C)C)C(=O)N[C@@H](CCCNC(=N)N)C(=O)N1)[C@@H](C)CC)C(N)=O` [compound 106], the IC50 was 2.5 µM on hNav1.4 (IonWorks Quattro, Table 6); more than 5 µM at hNav1.5 (IonWorks Quattro, Table 6); 4.8 µM on hNav1.3 (IonWorks Quattro, Table 6); 5 µM at hNav1.7. For the same compound, at hNav1.4 (Table 6), the Nav1.4/Nav1.7 was 1.
In the case of `CC[C@H](C)[C@H](NC(=O)[C@@H](NC(=O)[C@H](CCCNC(=N)N)NC(=O)[C@H](CCCNC(=N)N)NC(=O)[C@@H]1CSSC[C@@H]2NC(=O)[C@H](C)NC(=O)[C@H](CCCNC(=N)N)NC(=O)[C@H](CCCCN)NC(=O)[C@H](CO)NC(=O)[C@H](CC(=O)O)NC(=O)[C@@H]3CSSC[C@H](NC(=O)[C@H](CCCNC(=N)N)NC(=O)[C@H](CC(C)C)NC(=O)CNC(=O)[C@H](CCC(=O)O)NC(=O)[C@H](CSSC[C@H](NC(=O)[C@@H](N)Cc4ccc(O)cc4)C(=O)N[C@@H](CCC(N)=O)C(=O)N[C@@H](CCCCN)C(=O)N[C@@H](Cc4c[nH]c5ccccc45)C(=O)N[C@@H](CCSC)C(=O)N[C@@H](Cc4c[nH]c5ccccc45)C(=O)N[C@@H]([C@@H](C)O)C(=O)N3)NC2=O)C(=O)N[C@@H](CCCCN)C(=O)N[C@@H](CC(C)C)C(=O)N[C@@H](Cc2c[nH]c3ccccc23)C(=O)N1)[C@@H](C)CC)C(N)=O` [compound 107], the IC50 on hNav1.4 (IonWorks Quattro, Table 6) was 0.23 µM; on hNav1.5 (IonWorks Quattro, Table 6) it was more than 5 µM; at hNav1.3 (IonWorks Quattro, Table 6) it was 0.1 µM; at hNav1.7 it was 0.028 µM. Besides, on hNav1.4 (Table 6), the Nav1.4/Nav1.7 amounted to 8.
With `CC[C@H](C)[C@H](NC(=O)[C@H](CCCCN)NC(=O)[C@H](CCCNC(=N)N)NC(=O)[C@@H]1CSSC[C@@H]2NC(=O)[C@H](C)NC(=O)[C@H](CCCNC(=N)N)NC(=O)[C@H](CCCCN)NC(=O)[C@H](CO)NC(=O)[C@H](CC(=O)O)NC(=O)[C@@H]3CSSC[C@H](NC(=O)[C@H](CCCNC(=N)N)NC(=O)[C@H](CC(C)C)NC(=O)CNC(=O)[C@H](CCC(=O)O)NC(=O)[C@H](CSSC[C@H](NC(=O)[C@@H](N)Cc4ccc(O)cc4)C(=O)N[C@@H](CCC(N)=O)C(=O)N[C@@H](CCCCN)C(=O)N[C@@H](Cc4c[nH]c5ccccc45)C(=O)N[C@@H](CCSC)C(=O)N[C@@H](Cc4c[nH]c5ccccc45)C(=O)N[C@@H]([C@@H](C)O)C(=O)N3)NC2=O)C(=O)N[C@@H](CCCCN)C(=O)N[C@@H](CC(C)C)C(=O)N[C@@H](Cc2c[nH]c3ccccc23)C(=O)N1)C(=O)N[C@@H](CCCNC(=N)N)C(N)=O` [compound 109], the IC50 at hNav1.4 (IonWorks Quattro, Table 6) was 1.1 µM; on hNav1.5 (IonWorks Quattro, Table 6), more than 5 µM; at hNav1.3 (IonWorks Quattro, Table 6), 1.3 µM; at hNav1.7 it was 0.067 µM. At hNav1.4 (Table 6), the Nav1.4/Nav1.7 was determined as 16.
Consider `CC[C@@H]1NC(=O)[C@H](CC(C)C)NC(=O)CNC(=O)[C@H](CCC(=O)O)NC(=O)[C@@H]2CSSC[C@H](NC(=O)[C@@H](N)Cc3ccc(O)cc3)C(=O)N[C@@H](CCC(N)=O)C(=O)N[C@@H](CCCCN)C(=O)N[C@@H](Cc3c[nH]c4ccccc34)C(=O)N[C@@H](CCSC)C(=O)N[C@@H](Cc3c[nH]c4ccccc34)C(=O)N[C@@H]([C@@H](C)O)C(=O)N[C@H]3CSSC[C@H](NC1=O)C(=O)N[C@@H](CCCCN)C(=O)N[C@@H](CC(C)C)C(=O)N[C@@H](Cc1c[nH]c4ccccc14)C(=O)N[C@H](C(=O)N[C@@H](CCCNC(=N)N)C(=O)N[C@@H](CCCCN)C(=O)N[C@H](C(=O)N[C@H](C(N)=O)[C@@H](C)CC)[C@@H](C)CC)CSSC[C@H](NC(=O)[C@H](C)NC(=O)[C@H](CCCNC(=N)N)NC(=O)[C@H](CCCCN)NC(=O)[C@H](CO)NC(=O)[C@H](CC(=O)O)NC3=O)C(=O)N2` [compound 117], for which the IC50 on hNav1.4 is 0.9 µM; at hNav1.5 it was 10.6 µM; on hNav1.3, 0.97 µM; on hNav1.7 it was 0.05 µM. For the same compound, at hNav1.7, the Nav1.4/Nav1.7 was determined as 19.
On to `CC[C@H](NC(=O)[C@H](CCCCN)NC(=O)[C@H](CCCNC(=N)N)NC(=O)[C@@H]1CSSC[C@@H]2NC(=O)[C@H](C)NC(=O)[C@H](CCCNC(=N)N)NC(=O)[C@H](CCCCN)NC(=O)[C@H](CO)NC(=O)[C@H](CC(=O)O)NC(=O)[C@@H]3CSSC[C@H](NC(=O)[C@H](CCC(=O)O)NC(=O)[C@H](CC(C)C)NC(=O)CNC(=O)[C@H](CCC(=O)O)NC(=O)[C@H](CSSC[C@H](NC(=O)[C@@H](N)Cc4ccc(O)cc4)C(=O)N[C@@H](CCC(N)=O)C(=O)N[C@@H](CCCCN)C(=O)N[C@@H](Cc4c[nH]c5ccccc45)C(=O)N[C@@H](CCSC)C(=O)N[C@@H](Cc4c[nH]c5ccccc45)C(=O)N[C@@H]([C@@H](C)O)C(=O)N3)NC2=O)C(=O)N[C@@H](CCCCN)C(=O)N[C@@H](CC(C)C)C(=O)N[C@@H](Cc2c[nH]c3ccccc23)C(=O)N1)C(=O)N[C@H](C(N)=O)[C@@H](C)CC` [compound 130], for which the IC50 at hNav1.4 was more than 5 µM; at hNav1.5, 8.2 µM and 11.1 µM; at hNav1.3 it was more than 5 µM; on hNav1.7, 0.17 µM and 0.21 µM. The Nav1.4/Nav1.7 at hNav1.7 is 29 and 24.
Take `CCCC[C@@H]1NC(=O)[C@H](Cc2cn(CCCOCCOCCOCCOCCOCCOCCOCCOCCOCCOCCN)nn2)NC(=O)[C@H](CCCCN)NC(=O)[C@H](CCC(N)=O)NC(=O)[C@@H](NC(=O)[C@@H](N)Cc2ccc(O)cc2)CSSC[C@@H]2NC(=O)[C@@H]3CSSC[C@@H](C(=O)N[C@@H](CCCNC(=N)N)C(=O)N[C@@H](CCCCN)C(=O)N[C@H](C(=O)N[C@H](C(N)=O)[C@@H](C)CC)[C@@H](C)CC)NC(=O)[C@H](Cc4c[nH]c5ccccc45)NC(=O)[C@H](CC(C)C)NC(=O)[C@H](CCCCN)NC(=O)[C@H](CSSC[C@H](NC(=O)[C@H]([C@@H](C)O)NC(=O)[C@H](Cc4c[nH]c5ccccc45)NC1=O)C(=O)N[C@@H](CC(=O)O)C(=O)N[C@@H](CO)C(=O)N[C@@H](CCCCN)C(=O)N[C@@H](CCCNC(=N)N)C(=O)N[C@@H](C)C(=O)N3)NC(=O)[C@H](CCCNC(=N)N)NC(=O)[C@H](CC(C)C)NC(=O)CNC(=O)[C@H](CCC(=O)O)NC2=O` [compound 251]: the IC50 is more than 7 µM on hNav1.4 (IonWorks Quattro, Table 9); more than 7 µM at hNav1.5 (IonWorks Quattro, Table 9); more than 7 µM at hNav1.3 (IonWorks Quattro, Table 9); more than 7 µM at hNav1.7 (IonWorks Quattro, […]).
With `CCCC[C@@H]1NC(=O)[C@H](Cc2c[nH]c3ccccc23)NC(=O)[C@H](CCCCN)NC(=O)[C@H](CCC(N)=O)NC(=O)[C@@H](NC(=O)[C@@H](N)Cc2ccc(O)cc2)CSSC[C@@H]2NC(=O)[C@@H]3CSSC[C@@H](C(=O)N[C@@H](CCCNC(=N)N)C(=O)N[C@@H](CCCCN)C(=O)N[C@H](C(=O)N[C@H](C(N)=O)[C@@H](C)CC)[C@@H](C)CC)NC(=O)[C@H](Cc4c[nH]c5ccccc45)NC(=O)[C@H](CC(C)C)NC(=O)[C@H](CCCCN)NC(=O)[C@H](CSSC[C@H](NC(=O)[C@H]([C@@H](C)O)NC(=O)[C@H](Cc4cn(CCCOCCOCCOCCOCCOCCOCCOCCOCCOCCOCCN)nn4)NC1=O)C(=O)N[C@@H](CC(=O)O)C(=O)N[C@@H](CO)C(=O)N[C@@H](CCCCN)C(=O)N[C@@H](CCCNC(=N)N)C(=O)N[C@@H](C)C(=O)N3)NC(=O)[C@H](CCCNC(=N)N)NC(=O)[C@H](CC(C)C)NC(=O)CNC(=O)[C@H](CCC(=O)O)NC2=O` [compound 253], the IC50 is more than 7 µM on hNav1.4 (IonWorks Quattro, Table 9); more than 7 µM at hNav1.5 (IonWorks Quattro, Table 9); more than 7 µM at hNav1.3 (IonWorks Quattro, Table 9); 4.6 µM at hNav1.7 (IonWorks Quattro, […]).
Turning to `CCCC[C@@H]1NC(=O)[C@H](Cc2c[nH]c3ccccc23)NC(=O)[C@H](CCCCN)NC(=O)[C@H](CCC(N)=O)NC(=O)[C@@H](NC(=O)[C@@H](N)Cc2ccc(O)cc2)CSSC[C@@H]2NC(=O)[C@@H]3CSSC[C@@H](C(=O)N[C@@H](CCCNC(=N)N)C(=O)N[C@@H](CCCCN)C(=O)N[C@H](C(=O)N[C@H](C(N)=O)[C@@H](C)CC)[C@@H](C)CC)NC(=O)[C@H](Cc4c[nH]c5ccccc45)NC(=O)[C@H](CC(C)C)NC(=O)[C@H](Cc4cn(CCCOCCOCCOCCOCCOCCOCCOCCOCCOCCOCCN)nn4)NC(=O)[C@H](CSSC[C@H](NC(=O)[C@H]([C@@H](C)O)NC(=O)[C@H](Cc4c[nH]c5ccccc45)NC1=O)C(=O)N[C@@H](CC(=O)O)C(=O)N[C@@H](CO)C(=O)N[C@@H](CCCCN)C(=O)N[C@@H](CCCNC(=N)N)C(=O)N[C@@H](C)C(=O)N3)NC(=O)[C@H](CCCNC(=N)N)NC(=O)[C@H](CC(C)C)NC(=O)CNC(=O)[C@H](CCC(=O)O)NC2=O` [compound 264], the IC50 at hNav1.4 (IonWorks Quattro, Table 9) is more than 7 µM; at hNav1.5 (IonWorks Quattro, Table 9), more than 7 µM; on hNav1.3 (IonWorks Quattro, Table 9), more than 7 µM; on hNav1.7 (IonWorks Quattro, […]), more than 7 µM.

As usually defined, the IC50 is the concentration that inhibits the measured activity by half.

These data come from patent US10344060B2 (priority 2013, dated 2019).
